# Tests used:
# [1] = target: Free fatty acid receptor 4 (Homo sapiens, UniProt Q5NUL3); assay: Agonist activity at human GPR120 short splice variant expressed in HEK293 cells assessed as increase in intracellular calcium flux incubated for 30 mins measured for 300 secs at 1 sec interval by Fluo-4 NW dye based FLIPR assay; format: functional, cell-based
# Mus musculus [2] = assay: Antidiabetic activity in diet-induced obese C57BL/6 mouse harboring wild type GPR120 assessed as reduction in plasma glucose delta AUC level at 60 mg/kg, po qd administered 30 mins prior to glucose challenge measured 90 mins post glucose challenge for 3 weeks; format: functional; design: scale not given: the % may be the effect or the level left
# [3] = Oral bioavailability in SPF Sprague-Dawley rat at 10 mg/kg by LC-MS/MS analysis; format: ADME, organism-based; settings: in vivo
# [4] = Protein binding in human plasma; format: ADME, cell-free; settings: read-out: PPB (converted)
# Mus musculus [5] = assay: Antidiabetic activity in diet-induced obese C57BL/6 mouse assessed as reduction in plasma glucose delta AUC level at 0.1 mg/kg, po administered 30 mins prior to glucose challenge measured 90 mins post glucose challenge by OGTT relative to control; format: functional; design: scale not given: the % may be the effect or the level left
# [6] = Cmax in SPF Sprague-Dawley rat at 10 mg/kg, po by LC-MS/MS analysis; format: ADME, organism-based; design: dose 10 mg/kg, route oral; settings: in vivo
# [7] = Metabolic stability in mouse liver microsomes assessed as parent compound remaining measured at 10 mins; format: ADME, microsome; settings: for remaining at 10 min: liver microsomes, read-out: Stability
# [8] = Cmax in DIO C57bl/6J mouse at 20 mg/kg, po administered via gavage by LC-MS/MS analysis; format: ADME, organism-based; design: dose 20 mg/kg, route oral; settings: in vivo
# hERG (KCNH2) [9] = target: T1, hERG (KCNH2) (Homo sapiens, UniProt Q12809); assay: Inhibition of human ERG at 30 uM by patch express assay relative to control
# T1 sequence (Q12809 whole entry): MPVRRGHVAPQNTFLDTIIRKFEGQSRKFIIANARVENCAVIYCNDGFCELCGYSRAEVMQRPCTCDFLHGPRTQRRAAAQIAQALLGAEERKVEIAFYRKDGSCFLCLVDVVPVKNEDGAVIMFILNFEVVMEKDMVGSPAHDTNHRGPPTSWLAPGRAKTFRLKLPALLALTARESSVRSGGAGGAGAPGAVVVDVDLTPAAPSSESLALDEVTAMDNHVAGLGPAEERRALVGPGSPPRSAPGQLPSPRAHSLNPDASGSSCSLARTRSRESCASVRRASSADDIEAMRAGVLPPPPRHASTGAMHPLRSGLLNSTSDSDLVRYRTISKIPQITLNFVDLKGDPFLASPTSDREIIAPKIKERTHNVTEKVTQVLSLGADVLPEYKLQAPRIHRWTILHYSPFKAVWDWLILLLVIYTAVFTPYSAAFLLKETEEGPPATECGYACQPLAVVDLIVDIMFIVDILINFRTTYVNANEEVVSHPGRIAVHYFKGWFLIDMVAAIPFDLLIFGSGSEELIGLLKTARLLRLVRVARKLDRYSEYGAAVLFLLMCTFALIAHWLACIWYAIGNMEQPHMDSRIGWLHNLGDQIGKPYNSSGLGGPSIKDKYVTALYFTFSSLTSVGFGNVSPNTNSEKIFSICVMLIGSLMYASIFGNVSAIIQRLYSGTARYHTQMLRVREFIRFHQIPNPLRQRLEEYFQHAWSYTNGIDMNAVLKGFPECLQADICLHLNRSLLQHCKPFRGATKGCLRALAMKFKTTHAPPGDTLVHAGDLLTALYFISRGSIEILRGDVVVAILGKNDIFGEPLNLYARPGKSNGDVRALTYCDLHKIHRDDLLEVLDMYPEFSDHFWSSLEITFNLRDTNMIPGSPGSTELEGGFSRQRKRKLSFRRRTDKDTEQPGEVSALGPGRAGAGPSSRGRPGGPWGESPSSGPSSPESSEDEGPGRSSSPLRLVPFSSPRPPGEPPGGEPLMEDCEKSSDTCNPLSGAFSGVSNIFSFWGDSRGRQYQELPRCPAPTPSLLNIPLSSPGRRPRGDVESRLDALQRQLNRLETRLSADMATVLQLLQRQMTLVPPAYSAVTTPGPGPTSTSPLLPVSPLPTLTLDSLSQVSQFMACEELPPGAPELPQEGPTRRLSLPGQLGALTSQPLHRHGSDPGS
# [10] = Half life in DIO C57bl/6J mouse at 20 mg/kg, po administered via gavage by LC-MS/MS analysis; format: ADME, organism-based; settings: in vivo
# [11] = Protein binding in mouse plasma; format: ADME, cell-free; settings: read-out: PPB (converted)
# [12] = Efflux ratio of apparent permeability from basolateral to apical side over apical to basolateral side in MDCK cells; format: ADME, cell-based, Canis lupus familiaris; settings: dog
# [13] = Metabolic stability in rat liver microsomes assessed as parent compound remaining measured at 10 mins; format: ADME, microsome; settings: for remaining at 10 min: liver microsomes, read-out: Stability
# hERG (KCNH2) [14] = target: T1, hERG (KCNH2); assay: Inhibition of human ERG at 3 uM by patch express assay relative to control
# Mus musculus [15] = assay: Antidiabetic activity in diet-induced obese C57BL/6 mouse assessed as reduction in plasma glucose delta AUC level administered orally 30 mins prior to glucose challenge measured 90 mins post glucose challenge by OGTT; format: functional, organism-based
# [16] = Metabolic stability in human liver microsomes assessed as parent compound remaining measured at 10 mins; format: ADME, microsome; settings: read-out: Stability
# [17] = AUClast in SPF Sprague-Dawley rat at 10 mg/kg, po by LC-MS/MS analysis; format: ADME, organism-based; design: dose 10 mg/kg, time 0 - last, route oral; settings: in vivo
# Mus musculus [18] = assay: Antidiabetic activity in GPR120 knockout diet-induced obese C57BL/6 mouse assessed as reduction in plasma glucose delta AUC level at 60 mg/kg, po qd administered 30 mins prior to glucose challenge measured 90 mins post glucose challenge for 3 weeks; format: functional; design: scale not given: the % may be the effect or the level left
# [19] = target: Voltage-gated inwardly rectifying potassium channel KCNH2 (Homo sapiens, UniProt Q12809); assay: Inhibition of human ERG
# Chain of Voltage-gated inwardly rectifying potassium channel KCNH2 (Q12809 whole entry): as above
# [20] = target: T2, PXR (nuclear receptor subfamily 1 group I member 2) (Homo sapiens, UniProt O75469); assay: Activation of PXR (unknown origin) at 5 uM relative to control; settings: read-out: Activity
# T2 sequence (O75469 whole entry): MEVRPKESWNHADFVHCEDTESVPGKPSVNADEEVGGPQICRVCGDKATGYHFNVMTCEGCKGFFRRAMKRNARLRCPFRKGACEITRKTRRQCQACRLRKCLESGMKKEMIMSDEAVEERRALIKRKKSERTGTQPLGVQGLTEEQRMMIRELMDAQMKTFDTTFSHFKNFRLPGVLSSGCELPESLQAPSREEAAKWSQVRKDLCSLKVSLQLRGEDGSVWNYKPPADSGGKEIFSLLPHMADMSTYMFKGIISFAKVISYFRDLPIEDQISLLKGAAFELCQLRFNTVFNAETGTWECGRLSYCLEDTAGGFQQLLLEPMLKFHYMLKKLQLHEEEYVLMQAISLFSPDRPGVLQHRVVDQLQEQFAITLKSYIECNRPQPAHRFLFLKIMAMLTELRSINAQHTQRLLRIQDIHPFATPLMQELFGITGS
# [21] = target: T3, Free fatty acid receptor 4 (Mus musculus, UniProt Q7TMA4); assay: Agonist activity at mouse GPR120 by calcium flux assay; format: functional
# T3 sequence (Q7TMA4 whole entry): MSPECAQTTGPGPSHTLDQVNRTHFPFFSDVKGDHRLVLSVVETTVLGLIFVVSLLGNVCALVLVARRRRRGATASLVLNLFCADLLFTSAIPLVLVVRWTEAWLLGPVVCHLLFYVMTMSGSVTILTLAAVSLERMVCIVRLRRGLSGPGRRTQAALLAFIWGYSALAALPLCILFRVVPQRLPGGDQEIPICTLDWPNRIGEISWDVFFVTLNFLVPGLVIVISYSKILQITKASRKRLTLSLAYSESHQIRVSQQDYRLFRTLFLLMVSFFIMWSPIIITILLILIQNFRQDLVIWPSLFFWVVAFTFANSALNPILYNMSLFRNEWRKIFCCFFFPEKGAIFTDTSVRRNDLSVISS
# hERG (KCNH2) [22] = target: T1, hERG (KCNH2); assay: Inhibition of human ERG at 10 uM by patch express assay relative to control
# [23] = Kinetic solubility of the compound in PBS; format: physicochemical; settings: read-out: Kinetic_solubility
# [24] = target: Free fatty acid receptor 1 (Homo sapiens, UniProt O14842); assay: Agonist activity at human GPR40 by calcium flux assay; format: functional
# Chain of Free fatty acid receptor 1 (O14842 whole entry): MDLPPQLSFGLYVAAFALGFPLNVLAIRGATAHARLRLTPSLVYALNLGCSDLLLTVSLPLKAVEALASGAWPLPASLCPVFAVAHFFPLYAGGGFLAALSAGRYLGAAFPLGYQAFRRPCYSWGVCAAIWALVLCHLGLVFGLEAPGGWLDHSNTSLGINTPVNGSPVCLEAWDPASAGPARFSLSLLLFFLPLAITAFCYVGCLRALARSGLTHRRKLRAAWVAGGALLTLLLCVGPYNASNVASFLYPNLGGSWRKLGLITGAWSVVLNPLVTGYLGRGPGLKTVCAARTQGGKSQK
# [25] = Ratio of drug uptake in DIO C57bl/6J mouse adipose tissue to plasma at 20 mg/kg, po administered via gavage; format: ADME, organism-based; settings: adipose tissue and plasma
# [26] = Inhibition of CYP450 (unknown origin) measured up to 10 uM; format: ADME; settings: human
# Mus musculus [27] = assay: Antidiabetic activity in diet-induced obese C57BL/6 mouse assessed as reduction in plasma glucose delta AUC level at 3 mg/kg, po administered 30 mins prior to glucose challenge measured 90 mins post glucose challenge by OGTT relative to control; format: functional; design: scale not given: the % may be the effect or the level left
# Mus musculus [28] = assay: Antidiabetic activity in diet-induced obese C57BL/6 mouse assessed as reduction in plasma glucose delta AUC level at 0.3 mg/kg, po administered 30 mins prior to glucose challenge measured 90 mins post glucose challenge by OGTT relative to control; format: functional; design: scale not given: the % may be the effect or the level left
# [29] = Apparent permeability from apical to basolateral side in MDCK cells; format: ADME, cell-based, Canis lupus familiaris; settings: dog
# Mus musculus [30] = assay: Antidiabetic activity in diet-induced obese C57BL/6 mouse assessed as reduction in plasma glucose delta AUC level at 1 mg/kg, po administered 30 mins prior to glucose challenge measured 90 mins post glucose challenge by OGTT relative to control; format: functional; design: scale not given: the % may be the effect or the level left
# [31] = AUClast in DIO C57bl/6J mouse at 20 mg/kg, po administered via gavage by LC-MS/MS analysis; format: ADME, organism-based; design: dose 20 mg/kg, route oral, time 0 - last; settings: in vivo
# [32] = Half life in SPF Sprague-Dawley rat at 10 mg/kg, po by LC-MS/MS analysis; format: ADME, organism-based; settings: in vivo
# [33] = Protein binding in rat plasma; format: ADME, cell-free; settings: read-out: PPB (converted)
# [34] = target: T4, Free fatty acid receptor 4 (Homo sapiens, UniProt Q5NUL3); assay: Agonist activity at PK-tagged human GPR120 long isoform expressed in CHOK1 cells co-expressing EA-tagged beta-arrestin assessed as beta-gal enzyme complex formation after 90 mins by enzyme fragment complementation assay; format: cell-based
# T4 sequence (Q5NUL3 whole entry): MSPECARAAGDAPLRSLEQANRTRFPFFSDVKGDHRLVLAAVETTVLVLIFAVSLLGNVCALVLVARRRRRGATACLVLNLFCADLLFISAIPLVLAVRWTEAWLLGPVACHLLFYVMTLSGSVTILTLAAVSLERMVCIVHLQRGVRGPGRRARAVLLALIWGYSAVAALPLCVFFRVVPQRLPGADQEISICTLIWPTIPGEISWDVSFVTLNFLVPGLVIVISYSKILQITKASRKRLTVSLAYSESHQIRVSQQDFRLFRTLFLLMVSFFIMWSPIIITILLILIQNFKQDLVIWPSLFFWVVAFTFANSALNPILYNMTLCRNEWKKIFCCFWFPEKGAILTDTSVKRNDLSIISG
smiles,measurement,setting,value
O=C(O)CCc1cc(F)c(OCc2c(-c3ccc(Cl)cc3F)nsc2C(F)(F)F)c(F)c1,EC50,[1],42 nM
same,Activity,Mus musculus [2],137%
same,bioavailability,[3],57.2%
same,fraction unbound,[4],0.0013
same,Activity,Mus musculus [5],3%
same,Cmax,[6],3560 ng/mL
same,remaining at 10 min,[7],87 to 100%
same,Cmax,[8],9270 ng/mL
same,inhibition at 30 µM,hERG (KCNH2) [9],12.5%
same,half-life,[10],314 min
same,fraction unbound,[11],0.0032
same,efflux ratio,[12],1.05
same,remaining at 10 min,[13],87 to 100%
same,inhibition at 3 µM,hERG (KCNH2) [14],5.9%
same,Activity,Mus musculus [15],Dose-dependent effect
same,remaining at 10 min,[16],87 to 100%
same,AUC(0-t),[17],4470 ng·h/mL
same,Activity,Mus musculus [18],2%
same,IC50,[19],> 50 µM
same,activity at 5 µM,[20],25.4%
same,EC50,[21],77 nM
same,inhibition at 10 µM,hERG (KCNH2) [22],11.2%
same,solubility kinetic,[23],38.9 µM
same,EC50,[24],> 5 µM
same,Kp,[25],0.08
same,inhibition (INH),[26],Not Active
same,Activity,Mus musculus [27],83%
same,Activity,Mus musculus [28],34%
same,Papp A→B,[29],17.5 ×10⁻⁶ cm/s
same,Activity,Mus musculus [30],61%
same,AUC(0-t),[31],46800 ng·h/mL
same,half-life,[32],58.8 min
same,fraction unbound,[33],0.0019
CCc1cc(CCC(=O)O)ccc1OCc1c(-c2ccc(Cl)cc2)nsc1C(F)(F)F,EC50,[1],202 nM
O=C(O)CCc1cc(F)c(OCc2c(-c3ccc(Cl)cc3)nsc2C(F)(F)F)c(F)c1,EC50,[1],51 nM
CCc1ccc(-c2nsc(C(F)(F)F)c2COc2ccc(CCC(=O)O)c(C)c2C)cc1,EC50,[1],120 nM
same,EC50,[34],210 nM
O=C(O)CCc1ccc(OCc2c(-c3ccc(Cl)cc3)nsc2C(F)(F)F)cc1C(F)(F)F,EC50,[1],236 nM
O=C(O)CCc1cc(F)c(OCc2c(-c3ccc(Cl)c(F)c3)nsc2C(F)(F)F)c(F)c1,EC50,[1],25 nM
same,remaining at 10 min,[7],87 to 100%
same,remaining at 10 min,[13],87 to 100%
same,remaining at 10 min,[16],87 to 100%
same,EC50,[21],102 nM
same,EC50,[24],3 µM
O=C(O)CCc1ccc(OCc2c(-c3ccc(Cl)cc3)nsc2C(F)(F)F)c(Br)c1,EC50,[1],31 nM
O=C(O)CCc1ccc(OCc2c(-c3ccc(Cl)cc3)nsc2C(F)(F)F)c(F)c1F,EC50,[1],86 nM
CCc1ccc(-c2nsc(C(F)(F)C(F)(F)F)c2COc2ccc(CCC(=O)O)c(C)c2C)cc1,EC50,[1],332 nM
Cc1c(CCC(=O)O)ccc(OCc2c(-c3ccc(Cl)cc3)nsc2C(F)(F)F)c1C,EC50,[1],155 nM
same,Stability,"[7]; microsomes, 10 min",127%
same,Stability,"[13]; microsomes, 10 min",133%
same,remaining at 10 min,[16],104%
CCc1ccc(-c2snc(Cl)c2COc2ccc(CCC(=O)O)c(C)c2C)cc1,EC50,[1],56 nM
same,remaining at 10 min,[7],102%
same,remaining at 10 min,[16],76%
O=C(O)CCc1cc(F)c(OCc2c(-c3ccc(OC(F)(F)F)cc3)nsc2C(F)(F)F)c(F)c1,EC50,[1],314 nM
same,EC50,[34],99 nM
Cc1cc(OCc2c(-c3ccc(Cl)cc3)nsc2C(F)(F)F)c(F)cc1CCC(=O)O,EC50,[1],121 nM
CCc1ccc(-c2nsc(CC)c2COc2ccc(CCC(=O)O)c(C)c2C)cc1,EC50,[1],680 nM
